Results reported in US20220411362A1, “DITERPENOID COMPOUNDS THAT ACT ON PROTEIN KINASE C (PKC)” (K-Gen, Inc., priority 2019, published 2022).

Tests used:
[1] = tested on: HL-60 (Leukemia) cell line; assay: Proliferation of HL-60; format: cell-based; conditions: for ratio of (IC50 of K01)/(IC50 of compound), HL-60: value in parenthesis; for IC50: Homo sapiens, HL-60, read-out: IC50 in μM HL-60 (Leukemia)
Method: (§1) The diterpenoid compounds were tested in A549, a non-small cell lung cancer cell line harboring a K-Ras activating mutation. Briefly, A549 cells at a density of 1,000 cells/well were seeded in 96-well plates and incubated at 37° C. for 24 hours. A series of different concentrations of compound stocks (500×) were prepared by 3-fold serial dilution in DMSO. These compounds were further diluted in culture media and then added to cells so that the final DMSO concentration was not exceeding 0.25%. After 96 hours of incubation, 50 μL of CellTiter Glo reagent (Promega) was added to each well and luminescence was measured after 10 minutes using EnVision (PerkinElmer). Luminescence from cells treated with DMSO alone was set as Max and % of inhibition was calculated as follows: Inhibition %=(Max−Sample value)/Max×100. Data was analyzed using XL-fit software (ID Business Solutions Ltd.) and IC50, relative IC50, and % of top inhibition was calculated. Some of the compounds in this disclosure were very potent in blocking proliferation of A549 lung cancer cells at low nM range. In addition, potency of inhibiting A549 proliferation correlated well with its binding affinity to PKCs for this series of compounds. In other words, higher affinity binders had stronger inhibitory effects on A549 proliferation. This further support the notion that activation, rather than inhibition, of certain PKC isoforms is required to block proliferation of cancer cells, some of which may harbor K-Ras mutations. This is in sharp contrast to previous literature and common belief that inhibition of PKC is necessary to block cancer cell growth (Kang, 2014, New Journal of Science, 2014:1-36). Data presented here is in agreement with recent findings that many loss-of-function but not gain-of-function mutations of PKC isoforms have been identified in many human cancers (Antal et al., 2015, Cell, 160:489-502).
(§2) The compounds in this disclosure were tested for their potency in blocking proliferation of a few other cancer cells lines, including K-Ras mutant pancreatic cell lines Panc2.13 and KP-4, leukemia cell line HL-60, and lymphoma cell lines Namalwa and Mino. Similar procedures as in Example 67 were followed. Initial cell numbers seeded in 96-well plates were different for different cell lines: 3000 cells/well for Panc2.13; 800-1000 cells/well for KP-4; 5000 cells/well for HL-60; 5000-10000 cells/well for Namalwa and Mino. A ratio ratio of (IC50 of K01)/(IC50 of compound) (data in parenthesis in Table 5) was used to normalize the compound potency from different assay batches to a common comparator […].

[2] = tested on: KP-4 (Pancreatic) cell line; assay: Proliferation of KP-4; format: cell-based; conditions: Homo sapiens, KP-4, read-out: IC50 in μM KP-4 (Pancreatic)
Method: as §1, §2

[3] = biological target: T1, C1b domain of human PKCε (Homo sapiens, UniProt Q02156); assay: Competitive 3H-PDBu binding to C1b domain of PKCε
T1 construct: Genes encoding C1b domains of human PKCα, δ, ε, θ, and PKD1 (PKCμ) were synthesized; made in house; host or cells: E. coli BL21(DE3)
Summary of the method: (§3)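 Affinity was measured by competition with the radiotracer 3H-PDBu for recombinant human GST-C1b fusion proteins expressed in E. coli BL21(DE3). Incubation ran 10 minutes at 37° C with shaking, then 20 minutes on ice, and filter-trapped 3H-PDBu was counted by scintillation. IC50 values were converted to Ki by Cheng-Prusoff using the experimentally determined Kd for each protein preparation.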

[4] = tested on: Namalwa (Lymphoma) cell line; assay: Proliferation of Namalwa; format: cell-based; conditions: for ratio of (IC50 of K01)/(IC50 of compound), Namalwa: value in parenthesis; for IC50: read-out: IC50 in μM Namalwa (Lymphoma)
Method: as §1, §2

[5] = tested on: PANC1 cells; assay: Sphere formation assay (cancer stemness); format: cell-based; conditions: Homo sapiens, PANC-1, read-out: concentration exhibiting at least 50% inhibition on the sphere forming efficiency
Method: A group of diterpenoid compounds of the present disclosure were tested to assess their effects on blocking formation of spheres from cancer cell lines such as PANC1, a K-Ras mutant pancreatic cell line. Briefly, PANC1 cells were harvested, re-suspended as single cell suspensions, counted and seeded into Ultra Low Attachment Culture 96-well plate (Corning, Cat #3474) at 100 cells/well in 100 μl of complete media (with 10% FBS) containing 2% Matrigel (Corning, Cat #354234) and DMSO or compounds. Six replicates per condition were seeded. The seeded cells were placed in the 37° C. tissue culture incubator. 10 μl of low serum containing media (with 0.1% FBS) was added to each well every week. Spheres formed after 3-4 weeks were counted. Sphere forming efficiency was expressed as percentage of # of spheres/# of cells seeded.

[6] = biological target: T2, C1b domain of human PKCα (Homo sapiens, UniProt P17252); assay: biochemical; format: binding; conditions: Ki PKCα, 3H-PDBu competition
T2 construct: Genes encoding C1b domains of human PKCα, δ, ε, θ, and PKD1 (PKCμ) were synthesized; made in house; host or cells: E. coli BL21(DE3)
Summary of the method: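 Competitive binding against 3H-PDBu tracer used recombinant GST-C1b fusion protein expressed in E. coli. Incubation ran 10 min at 37°C with shaking, then 20 min on ice, followed by filtration and scintillation counting of trapped 3H-PDBu. Affinity was derived using each protein preparation's experimentally determined Kd for 3H-PDBu.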

[7] = tested on: Mino (Lymphoma) cell line; assay: Proliferation of Mino; format: cell-based; conditions: for IC50: Homo sapiens, MINO, read-out: IC50 in μM Mino (Lymphoma); for ratio of (IC50 of K01)/(IC50 of compound), Mino: value in parenthesis
Method: as §1, §2

[8] = biological target: T3, C1b domain of human PKCθ (Homo sapiens, UniProt Q04759); assay: Competitive 3H-PDBu binding to C1b domain of PKCθ
T3 construct: Genes encoding C1b domains of human PKCα, δ, ε, θ, and PKD1 (PKCμ) were synthesized; made in house; host or cells: E. coli BL21(DE3)
T3 sequence (Q04759 231-281 limits assumed): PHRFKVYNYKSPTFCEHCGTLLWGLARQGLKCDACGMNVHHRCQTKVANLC
Summary of the method: as §3

[9] = biological target: T4, C1b domain of human PKCδ (Homo sapiens, UniProt Q05655); assay: Competitive 3H-PDBu binding to C1b domain of PKCδ; conditions: Ki PKCδ, 3H-PDBu competition
T4 construct: Genes encoding C1b domains of human PKCα, δ, ε, θ, and PKD1 (PKCμ) were synthesized; made in house; host or cells: E. coli BL21(DE3)
Summary of the method: as §3

[10] = tested on: Panc2.13 (Pancreatic) cell line; assay: Proliferation of Panc2.13; format: cell-based; conditions: for ratio of (IC50 of K01)/(IC50 of compound), Panc2.13: value in parenthesis; for IC50: read-out: IC50 in μM Panc2.13 (Pancreatic)
Method: as §1, §2

[11] = tested on: phosphorylation of PKCμ, PKCδ and Erk1/2 in A549 lung cancer cells; format: cell-based; conditions: 0.3 μM, 30 minutes, Western blot (FIG. 1)
Method: Cells were then treated with different drugs at indicated concentrations for 30 minutes. […] Imagequant LAS4000 (GE) was used to scan membranes if secondary antibodies anti-mouse IgG HRP conjugate or anti-rabbit IgG HRP conjugate (dilutions from 1:2000-1:10000) were used. For ProteinSimple Wes system, manufacture's procedure was followed (ProteinSimple 12-230 kDa Wes Separation Module) for sample preparation, loading, running, and data analysis.
Phosphorylation of these sites has been linked to acute activation or catalytic activity of the PKC isoforms and Erk1/2. High level of phosphorylation indicates strong activation.

[12] = tested on: A549 non-small cell lung cancer cell line; assay: Proliferation of A549 (CellTiter Glo); format: cell-based; conditions: Homo sapiens, A549, 96 h, read-out: IC50 μM (A549 Cell Line)
Summary of the method: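 A549 cells (K-Ras mutant) seeded 1,000/well, 24 h at 37° C, then treated with 3-fold serial dilutions (final DMSO ≤0.25%) for 96 h. Viability by CellTiter Glo luminescence; % inhibition vs DMSO-only Max, curve-fit to give IC50, relative IC50 and % top inhibition.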

[13] = biological target: T5, C1b domain of human PKD1 (PKCμ) (Homo sapiens, UniProt Q15139); assay: biochemical; format: binding
T5 construct: Genes encoding C1b domains of human PKCα, δ, ε, θ, and PKD1 (PKCμ) were synthesized; made in house; host or cells: E. coli BL21(DE3)
T5 sequence (Q15139 270-320 limits assumed): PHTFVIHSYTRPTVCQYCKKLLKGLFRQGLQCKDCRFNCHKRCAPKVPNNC
Summary of the method: as §3

T4 sequence (Q05655 230-280 limits assumed): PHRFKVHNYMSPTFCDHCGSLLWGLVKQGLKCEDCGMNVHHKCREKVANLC
T1 sequence (Q02156 242-292 limits assumed): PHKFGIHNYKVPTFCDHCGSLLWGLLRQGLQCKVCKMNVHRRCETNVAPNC

With CC1=C[C@H]2[C@@]3(O)[C@H](C)C[C@]4(OC(=O)[C@@H](N)C5Cc6ccccc6C5)[C@H]([C@@H]3C=C(CO)C[C@]2(O)C1=O)C4(C)C [Compound K101-C1329] the “ratio of (IC50 of K01)/(IC50 of compound), HL-60” value [1] was 1.79, the IC50 [1] was 0.03 to 0.06 µM and the IC50 [2] was 0.06 to 0.1 µM. For the same compound, the Ki [3] was 0.001 to 0.03 µM, the “ratio of (IC50 of K01)/(IC50 of compound), Namalwa” value [4] was 1.6 and the IC50 [4] was 0.03 to 0.06 µM. For the same compound, the IC50 [5] was at most 0.15 µM, the Ki [6] was 0.03 to 0.06 µM and the IC50 [7] was 0.01 to 0.03 µM. The “ratio of (IC50 of K01)/(IC50 of compound), Mino” value [7] was 5.5, the Ki [8] was 0.005 to 0.01 µM and the Ki [9] was under 0.005 µM. For the same compound, the “ratio of (IC50 of K01)/(IC50 of compound), Panc2.13” value [10] was 5.82, the IC50 [10] was 0.1 to 0.2 µM and the “phosphorylation of PKC (PKD/PKCμ), PKCδ and Erk1/2” value [11] was “induced high levels of phosphorylation”. For the same compound, the IC50 [12] was 0.06 to 0.1 µM and the Ki [13] was under 0.005 µM.

In the case of CC1=C[C@H]2[C@@]3(O)[C@H](C)C[C@]4(OC(=O)[C@@H](N)CCC5CCCCC5)[C@H]([C@@H]3C=C(CO)C[C@]2(O)C1=O)C4(C)C [Compound K101-C1345], the “ratio of (IC50 of K01)/(IC50 of compound), HL-60” value [1] is reported as 27.7, the IC50 [1] is reported as 0.01 to 0.03 µM and the IC50 [2] is reported as 0.01 to 0.03 µM. For the same compound, the Ki [3] was 0.001 to 0.03 µM, the “ratio of (IC50 of K01)/(IC50 of compound), Namalwa” value [4] was 7.42 and the IC50 [4] was 0.001 to 0.01 µM. For the same compound, the IC50 [5] was at most 0.15 µM, the Ki [6] was 0.03 to 0.06 µM and the IC50 [7] was 0.001 to 0.01 µM. For the same compound, the “ratio of (IC50 of K01)/(IC50 of compound), Mino” value [7] was 33, the Ki [8] was 0.001 to 0.03 µM and the Ki [9] was under 0.005 µM. The “ratio of (IC50 of K01)/(IC50 of compound), Panc2.13” value [10] was 20.5, the IC50 [10] was 0.03 to 0.06 µM and the IC50 [12] was 0.01 to 0.03 µM. The Ki [13] was under 0.005 µM.

For CC1=C[C@H]2[C@@]3(O)[C@H](C)C[C@]4(OC(=O)[C@@H](N)C(C)(C)C)[C@H]([C@@H]3C=C(CO)C[C@]2(O)C1=O)C4(C)C [Compound K101-C1346], the IC50 [5] was at most 1.5 µM, the Ki [6] was 0.2 to 0.4 µM and the Ki [8] was 0.03 to 0.06 µM. For the same compound, the Ki [9] was 0.001 to 0.03 µM, the IC50 [12] was 0.2 to 0.6 µM and the Ki [13] was 0.005 to 0.01 µM.
